Experiments:
[1] = molecular target: T1, human sphingosine-1-phosphate receptor 1 (S1P1) (Homo sapiens, UniProt P21453); experiment: β-Arrestin2 recruitment assay (PathHunter), S1P1 CHO-K1 cells; type: cell-based; conditions: for Emax: efficacy normalized to maximum efficacy of fingolimod, read-out: hS1P1 B-arrestin2 SPAN; for EC50: β-arrestin2 recruitment, read-out: hS1P1 B-arrestin2 pEC50 (converted)
Outline: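 CHO-K1 cells co-expressing EA-β-arrestin2 and ProLink-tagged human S1P1 plated overnight, then stimulated 60 min at 37 °C. Enzyme-fragment complementation (β-galactosidase) detected after 1 h at room temperature by luminescence; values normalized to fingolimod.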
Target sequence in this assay (P21453 whole entry, the tested form may be a part): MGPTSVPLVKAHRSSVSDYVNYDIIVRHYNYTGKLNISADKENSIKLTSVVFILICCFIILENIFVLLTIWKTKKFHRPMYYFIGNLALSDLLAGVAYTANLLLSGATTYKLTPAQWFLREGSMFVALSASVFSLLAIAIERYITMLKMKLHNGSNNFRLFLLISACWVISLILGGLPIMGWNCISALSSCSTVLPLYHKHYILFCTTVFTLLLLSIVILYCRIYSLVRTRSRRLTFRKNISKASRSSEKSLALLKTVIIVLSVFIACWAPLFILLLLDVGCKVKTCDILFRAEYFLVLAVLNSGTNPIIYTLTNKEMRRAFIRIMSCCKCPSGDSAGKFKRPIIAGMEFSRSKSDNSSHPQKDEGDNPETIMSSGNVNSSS
Target sequence in this assay (P32121 whole entry partner, the tested form may be a part): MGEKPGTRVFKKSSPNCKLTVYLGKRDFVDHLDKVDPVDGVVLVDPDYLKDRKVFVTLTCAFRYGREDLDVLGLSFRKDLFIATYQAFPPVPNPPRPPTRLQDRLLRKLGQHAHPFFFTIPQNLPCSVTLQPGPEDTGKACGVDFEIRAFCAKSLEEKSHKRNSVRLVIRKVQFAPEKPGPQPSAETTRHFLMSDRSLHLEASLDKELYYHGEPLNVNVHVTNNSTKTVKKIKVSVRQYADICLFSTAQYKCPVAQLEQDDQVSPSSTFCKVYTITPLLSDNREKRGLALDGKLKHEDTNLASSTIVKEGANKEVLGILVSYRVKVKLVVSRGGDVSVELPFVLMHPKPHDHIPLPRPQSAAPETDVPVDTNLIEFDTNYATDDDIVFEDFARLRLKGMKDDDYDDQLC

[2] = molecular target: T1, human sphingosine-1-phosphate receptor 1 (S1P1); experiment: Inhibition of cAMP production (HTRF cAMP HiRange), S1P1 CHO-K1 cells; type: cell-based; conditions: for Emax: CHO-K1, efficacy normalized to maximum efficacy of fingolimod, read-out: hS1P1 CAMP SPAN; for EC50: read-out: hS1P1 CAMP pEC50 (converted)
Outline: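 CHO-K1 cells co-expressing human S1P1 (C-terminal ProLink tag) and EA-β-arrestin2, plated overnight; after 30 min compound incubation at 37 °C, intracellular cAMP measured by HTRF TR-FRET following 1 h at room temperature. Values normalized to fingolimod.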
Target sequence in this assay (P21453 whole entry, the tested form may be a part): as the sequence (P21453 whole entry, the tested form may be a part) above

[3] = inhibition of cAMP production, S1P1
[4] = CHO-K1, β-arrestin2 recruitment
[5] = inhibition of cAMP production, potency

Emax ([1]; CHO-K1) | EC50 ([1]; S1P1) | Emax [2] | EC50 [2, 3] | Emax [1, 4] | EC50 ([1]; potency) | Emax ([2]; inhibition of cAMP production) | EC50 [2, 5] | Compound
< 75% | < 10 µM | < 75% | > 0.316 µM | – | – | – | – | CC1CC(=O)c2ccc(-c3nc(-c4cccnc4)no3)cc2O1 (stereo not shown) [Compound 535, 2-methyl-7-[3-(pyridin-3-yl)-1,2,4-oxadiazol-5-yl]-3,4-dihydro-2H-1-benzopyran-4-one]
– | – | – | – | < 75% | > 10 µM | < 75% | > 0.316 µM | Cc1ccccc1C(C)c1noc(-c2ccc3c(c2)nnn3CC(C)C)n1 (stereo not shown) [Compound 154, 5-{3-[1-(2-methyl-phenyl)ethyl]-1,2,4-oxadiazol-5-yl}-1-(2-methylpropyl)-1H-1,2,3-benzotriazole]
– | – | – | – | < 75% | > 10 µM | < 75% | > 0.316 µM | Fc1cc(-c2noc(-c3ccc4c(c3)nnn4C3CCCC3)n2)ccc1C(F)(F)F [Compound 1, 1-cyclopentyl-5-{3-[3-fluoro-4-(trifluoro-methyl)phenyl]-1,2,4-oxadiazol-5-yl}-1H-1,2,3-benzotriazole]
> 75% | < 10 µM | > 75% | < 0.316 µM | – | – | – | – | CCC1(CC)CC(=O)c2cc(-c3nc(-c4cccnc4C)no3)ccc2O1 [Compound 564, 2,2-diethyl-6-(3-(2-methylpyridin-3-yl)-1,2,4-oxadiazol-5-yl)chroman-4-one]
< 75% | < 10 µM | > 75% | < 0.316 µM | – | – | – | – | Cc1nc2cc(-c3nc(-c4ccc5c(c4)nnn5C(C)C)no3)ccc2[nH]1 [Compound 571, 5-[5-(2-methyl-1H-1,3-benzodiazol-5-yl)-1,2,4-oxadiazol-3-yl]-1-(propan-2-yl)-1H-1,2,3-benzotriazole]
> 75% | < 10 µM | > 75% | < 0.316 µM | – | – | – | – | CCC1(CC)CC(=O)c2cc(-c3nc(-c4cccnc4C(F)(F)F)no3)ccc2O1 [Compound 562, 2,2-diethyl-6-(3-(2-(trifluoromethyl)pyridin-3-yl)-1,2,4-oxadiazol-5-yl)chroman-4-one]
– | – | – | – | < 75% | > 10 µM | > 75% | > 0.316 µM | CCC1(CC)CC(=O)c2cc(-c3nc(-c4ccc5c(c4)nnn5C(C)C)no3)ccc2O1 [Compound 305, 2,2-diethyl-6-(3-(1-isopropyl-1H-benzo[d][1,2,3]triazol-5-yl)-1,2,4-oxadiazol-5-yl)chroman-4-one]
> 75% | < 10 µM | > 75% | < 0.316 µM | – | – | – | – | CC(C)Nc1ccc(-c2nnc(-c3ccc4c(c3)CCC(=O)N4)o2)cc1C#N [Compound 473, 5-[5-(2-oxo-1,2,3,4-tetrahydroquinolin-6-yl)-1,3,4-oxadiazol-2-yl]-2-[(propan-2-yl)amino]benzonitrile]
< 75% | > 10 µM | < 75% | > 0.316 µM | – | – | – | – | CCC1(CC)CC(=O)c2cc(-c3ncc(-c4ccnc(O)c4)cn3)ccc2O1 [Compound 552, 2,2-diethyl-6-(5-(2-hydroxypyridin-4-yl)pyrimidin-2-yl)chroman-4-one]
– | – | – | – | > 75% | < 10 µM | > 75% | < 0.316 µM | CC(C)Oc1ccc(-c2nc(-c3ccc4c(c3)nnn4C(C)C)no2)cc1C(F)(F)F [Compound 246, 5-(4-isopropoxy-3-(trifluoromethyl)phenyl)-3-(1-isopropyl-1H-benzo[d][1,2,3]triazol-5-yl)-1,2,4-oxadiazole]
< 75% | > 10 µM | > 75% | > 0.316 µM | – | – | – | – | O=C1c2cc(-c3nc(-c4ccncc4)no3)ccc2OC(CO)(CO)C1Br (stereo not shown) [Compound 483, 3-bromo-2,2-bis(hydroxy-methyl)-6-[3-(pyridin-4-yl)-1,2,4-oxadiazol-5-yl]-3,4-dihydro-2H-1-benzopyran-4-one]
– | – | – | – | < 75% | > 10 µM | < 75% | > 0.316 µM | COc1ccccc1-c1noc(-c2ccc3[nH]ncc3c2)n1 [Compound 371, 5-(1H-indazol-5-yl)-3-(2-methoxyphenyl)-1,2,4-oxadiazole]
> 75% | > 10 µM | > 75% | > 0.316 µM | – | – | – | – | CCC1(CC)C/C(=N\O)c2cc(-c3nc(-c4cccnc4)no3)ccc2O1 [Compound 431, N-[(4E)-2,2-diethyl-6-[3-(pyridin-3-yl)-1,2,4-oxadiazol-5-yl]-3,4-dihydro-2H-1-benzopyran-4-ylidene]hydroxylamine]
– | – | – | – | > 75% | < 10 µM | > 75% | > 0.316 µM | Cc1ccccc1-c1nc(-c2ccc3c(c2)nnn3C2CCCC2)no1 [Compound 162, 3-(1-cyclopentyl-1H-benzo[d][1,2,3]triazol-5-yl)-5-(o-tolyl)-1,2,4-oxadiazole]
– | – | – | – | > 75% | < 10 µM | > 75% | < 0.316 µM | Cc1ccsc1-c1noc(-c2ccc3c(c2)nnn3C2CCCC2)n1 [Compound 46, 1-cyclopentyl-5-[3-(3-methylthiophen-2-yl)-1,2,4-oxadiazol-5-yl]-1H-1,2,3-benzotriazole]
– | – | – | – | < 75% | > 10 µM | < 75% | > 0.316 µM | Cc1cncc(-c2nc(-c3ccc4c(c3)nnn4C(C)C)no2)c1 [Compound 159, 3-(1-isopropyl-1H-benzo[d][1,2,3]triazol-5-yl)-5-(5-methylpyridin-3-yl)-1,2,4-oxadiazole]
< 75% | > 10 µM | < 75% | > 0.316 µM | – | – | – | – | Cc1nccnc1-c1nc(-c2ccc3c(c2)nnn3CC(C)(C)CO)no1 [Compound 540, 2,2-dimethyl-3-(5-(5-(3-methylpyrazin-2-yl)-1,2,4-oxadiazol-3-yl)-1H-benzo[d] [1,2,3]triazol-1-yl)propan-1-ol]
< 75% | > 10 µM | < 75% | > 0.316 µM | – | – | – | – | COc1cccc(-c2csc(-c3ccc4c(ccn4C(C)C)n3)n2)c1 [Compound 410, 2-(1-isoproplpyrrolo[3,2-b]pyridin-5-yl)-4-(3-methoxyphenyl)thiazole]
> 75% | > 10 µM | > 75% | > 0.316 µM | – | – | – | – | CCC1(CC)CC(=O)c2cc(-c3ncc(-c4ccccn4)cn3)ccc2O1 [Compound 530, 2,2-diethyl-6-(5-(pyridin-2-yl)pyrimidin-2-yl)chroman-4-one]
< 75% | > 10 µM | < 75% | > 0.316 µM | – | – | – | – | CCC1(CC)CC(=O)c2cc(-c3nc(-c4ccc5nonc5c4)no3)ccc2O1 [Compound 500, 6-[3-(2,1,3-benzoxadiazol-5-yl)-1,2,4-oxadiazol-5-yl]-2,2-diethyl-3,4-dihydro-2H-1-benzopyran-4-one]
– | – | – | – | < 75% | > 10 µM | < 75% | > 0.316 µM | COc1ccc(-c2nc(-c3ccc4c(c3)nnn4C3CCCC3)no2)cc1 [Compound 196, 3-(1-cyclopentyl-1H-benzo[d][1,2,3]triazol-5-yl)-5-(4-methoxyphenyl)-1,2,4-oxadiazole]
> 75% | < 10 µM | > 75% | < 0.316 µM | – | – | – | – | Cc1ccccc1-c1nc(-c2ccc3c(ccn3C(C)C)c2)no1 [Compound 389, 3-(1-isopropyl-1H-indol-5-yl)-5-(o-tolyl)-1,2,4-oxadiazole]
> 75% | > 10 µM | < 75% | > 0.316 µM | – | – | – | – | CCC1CC(=O)c2ccc(-c3nc(-c4ccncc4)no3)cc2O1 (stereo not shown) [Compound 589, 2-ethyl-7-[3-(pyridin-4-yl)-1,2,4-oxadiazol-5-yl]-3,4-dihydro-2H-1-benzopyran-4-one]
> 75% | > 10 µM | < 75% | < 0.316 µM | – | – | – | – | CCC1(CC)CC(=O)c2cc(-c3nc(-c4ccc5c(c4)CCC(=O)N5)no3)ccc2O1 [Compound 415, 6-(5-(2,2-diethyl-4-oxochroman-6-yl)-1,2,4-oxadiazol-3-yl)-3,4-dihydroquinolin-2(1H)-one]
– | – | – | – | < 75% | > 10 µM | < 75% | > 0.316 µM | Brc1ccccc1-c1nc(-c2ccc3c(c2)nnn3Cc2ccncc2)no1 [Compound 48, 5-(2-bromophenyl)-3-(1-(pyridin-4-ylmethyl)-1H-benzo[d][1,2,3]triazol-5-yl)-1,2,4-oxadiazole]
> 75% | < 10 µM | > 75% | < 0.316 µM | – | – | – | – | CC(C)Nc1ccc(-c2nc(-c3ccc4c(c3)NC(=O)CC4)no2)cc1C#N [Compound 435, 2-(isopropylamino)-5-(3-(2-oxo-1,2,3,4-tetrahydroquinolin-7-yl)-1,2,4-oxadiazol-5-yl)benzonitrile]
– | – | – | – | > 75% | > 10 µM | > 75% | > 0.316 µM | COc1ccccc1-c1nsc(-c2ccc3c(c2)nnn3C(C)C)n1 [Compound 213, 5-[3-(2-methoxy-phenyl)-1,2,4-thiadiazol-5-yl]-1-(propan-2-yl)-1H-1,2,3-benzotriazole]
> 75% | > 10 µM | < 75% | > 0.316 µM | – | – | – | – | COc1ccc(-c2nc(-c3ccc4c(c3)nnn4C(C)(C)CO)no2)c(C)c1 [Compound 610, 2-(5-(5-(4-methoxy-2-methylphenyl)-1,2,4-oxadiazol-3-yl)-1H-benzo[d] [1,2,3]triazol-1-yl)-2-methylpropan-1-ol]
